Results from patent US5698529A, “Chemotherapeutic compositions” (Supratek Pharma, Inc., priority 1996, dated 1997).
Values after ≈ are worked out from the molar mass of the structure shown.

Legend:
[1] = tested on: Dox-MCF-7; assay: Cytotoxicity against daunorubicin-resistant, verapamil-sensitive Dox-MCF-7 expressing P-170; format: cell-based, human
Excerpt: (§1) The daunorubicin composition of Example 3 {Prep. […] B}.

[2] = tested on: normal human mononuclear cells; assay: IC50 at intervals of drug contact, normal mononuclear cells, Example 5; format: cell-based
Protocol: Measurements are made at the indicated intervals of the drug contact with the cells from 15 minutes to 12 hours.

[3] = tested on: human breast cancer (MCF-7); assay: Cytotoxicity against daunorubicin-sensitive human breast cancer (MCF-7); format: cell-based; conditions: MCF7
Excerpt: as §1

[4] = tested on: H-69 cells; assay: Cytotoxic activity of plasma of inoculated mice on H-69 cells; format: cell-based, human; conditions: MTD i.v., plasma one hour after administration
Protocol: (§2) Anti-neoplastic activity is determined by evaluation of the cytotoxic activity of plasma of mammals inoculated with the test composition (see de Valeriola et el., Cancer Chemother. Pharmacol. 29, 133-140, 1991).
(§3) Groups (6 animals/group) of C57B1/6 7-week-old female mice are inoculated i.v. (via the tail vein) with free or micellar (N=1.3) daunorubicin obtained as described in Example 3 {Prep. B and Prep. A, respectively}. Drug concentrations (MTD) are adjusted so that a maximum volume of 0.1 mL is injected in each mouse. The experiment is repeated twice.
(§4) To obtain plasma samples, blood (10 μl) is collected from the tail artery one hour after drug administration, diluted 1:10 with sterile RPMI 1640 medium, and centrifuged at 400 g for 15 minutes. […] The cells are incubated for two hours at 37° C. and 5% CO2, and then washed three times with RPMI 1640. The pretreated cells are incubated in RPMI 1640 supplemented with 10% fetal calf serum at 37° C. and 5% CO2 for three days, after which cytotoxicity is determined as described in Example 1.

[5] = tested on: human ovarian carcinoma cells (CRL157); assay: Cytotoxicity to human ovarian carcinoma cells (CRL157), Example 1; format: cell-based; conditions: Ovarian carcinoma cell
Protocol: (§5) A. A block copolymer of poly(oxyethylene)-poly(oxypropylene) in which N=0.25 (Pluronic F-68) is diluted with RPMI 1640 medium to a final concentration of 2.0% at 4° C. The mixture is incubated for 30 minutes at 37° C. and then sterilely filtered through a 0.22 μm filter. An equal volume of a solution of 200 μg daunorubicin in RPMI 1640 medium is added and this mixture is incubated for 30 minutes at 37° C.
(§6) B. Human ovarian carcinoma cells (CRL157) are precultured in 1% solution of the same block copolymer but without daunorubicin in RPMI 1640 medium supplemented with 10% calf fetal serum. The preparation of part A is added and the mixture is incubated for 60 minutes at 37° C. and the cells then washed three times with RPMI 1640 and cultured in RPMI 1640 supplemented with 10% calf fetal serum for 3 days {Prep. A}. Cytotoxicity is measured, both for this preparation and a parallel preparation of free daunorubicin {Prep. B}, using the method of Alley et al., Cancer Res., 48, 589-601 (1988).

[6] = tested on: SKVLB cells; assay: Cytotoxic activity of plasma of inoculated mice on SKVLB cells; format: cell-based, human
Protocol: as §2, §3, §4
The procedure of Example 16 is repeated utilizing SKVLB and SRVO3 cells.

[7] = tested on: SKVO3 cells; assay: cells; format: cell-based; conditions: Homo sapiens; SKVO3, drug-sensitive; read-out: IC50
Excerpt: (§7) The antineoplastic agent vinblastine is incorporated into the block copolymer mixture described in Example 3.
(§8) The antineoplastic agent mitomycin C is incorporated into the block copolymer mixture described in Example 3.
(§9) The antineoplastic agent methotrexate is incorporated into the block copolymer mixture described in Example 3.
(§10) The antineoplastic agent daunorubicin is incorporated into the block copolymer mixture described in Example 3.

[8] = tested on: SKVLB cells; assay: cells; format: cell-based; conditions: Homo sapiens
Excerpt: as §7, §8, §9, §10

[9] = tested on: normal human mononuclear cells; assay: Cytotoxicity in normal human mononuclear cells, Example 4; format: cell-based
Protocol: as §6, with “(1988). The results are as follows:” for “(1988).”
A. A 1:1.5 mixture of block copolymers of poly(oxyethylene)-poly(oxypropylene) (pluronics P-85 and L-64) having individual ratios (n) of (oxypropylene) to (oxyethylene) blocks of 1.00 and 1.50, respectively, and a combined value (N) of 1.30, is diluted with RPMI 1640 medium to a final concentration of 2.0% at 4° C. The mixture is incubated for 30 minutes at 37° C. and then sterilely filtered through a 0.22 μm filter. An equal volume of a solution of 200 μg daunorubicin in RPMI 1640 medium is added and this mixture is incubated for 30 minutes at 37° C.
Daunorubicin in the composition of Example 3 is evaluated for cytotoxicity in (i) human T-lymphoma (Jurkat) cells as described in Example 1 and (ii) normal human mononuclear cells.

[10] = tested on: human T-lymphoma (Jurkat) cells; assay: Cytotoxicity to human T-lymphoma (Jurkat) cells, Example 1; format: cell-based
Protocol: as §5
as §6, with “(1988). The results are as follows:” for “(1988).”
Following the same procedure, cytotoxicity is determined against human T-lymphoma (Jurkat) cells: […]

**Q.** How did the inhibition at 0.016 µg/mL ([1]; Homo sapiens) turn out when `COc1cccc2c1C(=O)c1c(O)c3c(c(O)c1C2=O)C[C@@](O)(C(C)=O)C[C@@H]3O[C@H]1C[C@H](N)[C@H](O)[C@H](C)O1` [Prep. B, daunorubicin] was run?
**A.** 2%

**Q.** And the inhibition at 0.08 µg/mL ([1]; Homo sapiens)?
**A.** 7%

**Q.** What about the inhibition at 0.4 µg/mL ([1]; Homo sapiens) of the same molecule?
**A.** 39%

**Q.** What about the inhibition at 2 µg/mL ([1]; Homo sapiens) of the same molecule?
**A.** 62%

**Q.** What about the inhibition at 10 µg/mL ([1]; Homo sapiens) of the same molecule?
**A.** 86%

**Q.** And the inhibition at 50 µg/mL ([1]; Homo sapiens)?
**A.** 100%

**Q.** What about the “IC50 (in words)” value ([1]; resistant line Dox-MCF-7, statement for both resistant lines) of the same molecule?
**A.** higher IC50 's (is less toxic)

**Q.** And the IC50 ([2]; 0.25 h)?
**A.** 4.9 µg/mL (≈ 9.29 µM)

**Q.** What about the IC50 ([2]; 0.5 h) of the same molecule?
**A.** 0.98 µg/mL (≈ 1.86 µM)

**Q.** And the IC50 ([2]; 0.75 h)?
**A.** 0.405 µg/mL (≈ 0.768 µM)

**Q.** What about the IC50 ([2]; 1 h) of the same molecule?
**A.** 0.31 µg/mL (≈ 0.588 µM)

**Q.** What about the IC50 ([2]; 2 h) of the same molecule?
**A.** 0.29 µg/mL (≈ 0.55 µM)

**Q.** What about the IC50 ([2]; 4 h) of the same molecule?
**A.** 0.275 µg/mL (≈ 0.521 µM)

**Q.** And the IC50 ([2]; 8 h)?
**A.** 0.28 µg/mL (≈ 0.531 µM)

**Q.** What about the IC50 ([2]; 12 h) of the same molecule?
**A.** 0.24 µg/mL (≈ 0.455 µM)

**Q.** What about the inhibition at 0.016 µg/mL [3] of the same molecule?
**A.** 15%

**Q.** What about the inhibition at 0.08 µg/mL [3] of the same molecule?
**A.** 43%

**Q.** What about the inhibition at 0.4 µg/mL [3] of the same molecule?
**A.** 69%

**Q.** What about the inhibition at 2 µg/mL [3] of the same molecule?
**A.** 91%

**Q.** What about the inhibition at 10 µg/mL [3] of the same molecule?
**A.** 100%

**Q.** What about the inhibition at 50 µg/mL [3] of the same molecule?
**A.** 100%

**Q.** And the “Inhibition, %” value ([4]; plasma dilution 1:20)?
**A.** 42%

**Q.** What about the “Inhibition, %” value ([4]; plasma dilution 1:200) of the same molecule?
**A.** 5%

**Q.** And the “Inhibition, %” value ([4]; plasma dilution 1:2000)?
**A.** 0%

**Q.** What about the “Inhibition, %” value ([4]; plasma dilution 1:20000) of the same molecule?
**A.** 0%

**Q.** What about the inhibition at 0.016 µg/mL [5] of the same molecule?
**A.** 1%

**Q.** And the inhibition at 0.08 µg/mL [5]?
**A.** 20%

**Q.** And the inhibition at 0.4 µg/mL [5]?
**A.** 38%

**Q.** And the inhibition at 2 µg/mL [5]?
**A.** 53%

**Q.** What about the inhibition at 10 µg/mL [5] of the same molecule?
**A.** 81%

**Q.** What about the inhibition at 50 µg/mL [5] of the same molecule?
**A.** 100%

**Q.** What about the “Inhibition, %” value ([6]; plasma dilution 1:20, 10 mg/kg daunorubicin) of the same molecule?
**A.** 8%

**Q.** What about the “Inhibition, %” value ([6]; plasma dilution 1:20, MTD of daunorubicin) of the same molecule?
**A.** 0%

**Q.** And the “Inhibition, %” value ([6]; plasma dilution 1:200, 10 mg/kg daunorubicin)?
**A.** 0%

**Q.** And the “Inhibition, %” value ([6]; plasma dilution 1:200, MTD of daunorubicin)?
**A.** 0%

**Q.** What about the “Inhibition, %” value ([6]; plasma dilution 1:2000, 10 mg/kg daunorubicin) of the same molecule?
**A.** 0%

**Q.** What about the “Inhibition, %” value ([6]; plasma dilution 1:2000, MTD of daunorubicin) of the same molecule?
**A.** 0%

**Q.** And the IC50 [7]?
**A.** 0.62 µg/mL (≈ 1.18 µM)

**Q.** What about the IC50 [8] of the same molecule?
**A.** 5.85 µg/mL (≈ 11.1 µM)

**Q.** And the inhibition at 0.0032 µg/mL [9]?
**A.** 1%

**Q.** And the inhibition at 0.016 µg/mL [9]?
**A.** 18%

**Q.** What about the inhibition at 0.08 µg/mL [9] of the same molecule?
**A.** 23%

**Q.** And the inhibition at 0.4 µg/mL [9]?
**A.** 58%

**Q.** What about the inhibition at 2 µg/mL [9] of the same molecule?
**A.** 80%

**Q.** What about the inhibition at 10 µg/mL [9] of the same molecule?
**A.** 100%

**Q.** And the inhibition at 50 µg/mL [9]?
**A.** 100%

**Q.** What about the inhibition at 0.0032 µg/mL [10] of the same molecule?
**A.** 22%

**Q.** What about the inhibition at 0.016 µg/mL [10] of the same molecule?
**A.** 44%

**Q.** What about the inhibition at 0.08 µg/mL [10] of the same molecule?
**A.** 51%

**Q.** What about the inhibition at 0.4 µg/mL [10] of the same molecule?
**A.** 84%

**Q.** What about the inhibition at 2 µg/mL [10] of the same molecule?
**A.** 100%

**Q.** And the inhibition at 10 µg/mL [10]?
**A.** 100%

**Q.** What about the inhibition at 50 µg/mL [10] of the same molecule?
**A.** 100%
